Values joined by “and” are separate entries in the source; they are usually repeats but may differ in a detail not shown here. Equal values may be shown once.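 Step 1: Grow cells in 96-well plates. Step 2: Expose to compound for 48 hours at 5 concentrations. Step 3: Interpolate endpoints linearly; if unreached, use highest concentration. Here, GI50 denotes the concentration required for 50% inhibition of growth. TGI: total growth inhibition.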
Legend:
Assay in all cases: NCI anticancer screen, dose series, 48 h
[1] = system: HCT-15 colon
[2] = system: K-562 leukemia
[3] = system: SF-268 CNS
[4] = system: SF-539 CNS
[5] = system: SK-MEL-28 melanoma
[6] = system: SK-OV-3 ovarian
[7] = system: SNB-19 CNS
[8] = system: TK-10 renal
[9] = system: HS 578T breast
[10] = system: MDA-MB-435

**Q.** Cc1ccc(C(=O)C#Cc2c[nH]c(=O)[nH]c2=O)cc1 was tested. Which TGI [1] did it give?
**A.** The TGI was 37.7 µM.

**Q.** And the TGI [2]?
**A.** The TGI was 34.2 µM.

**Q.** And the TGI [3]?
**A.** The TGI was 26.2 µM.

**Q.** And the TGI [4]?
**A.** The TGI was 15.5 µM.

**Q.** What about the TGI [5] of the same compound?
**A.** Its TGI is 30.8 µM.

**Q.** What about the TGI [6] of the same compound?
**A.** The TGI was 73.6 µM.

**Q.** And the TGI [7]?
**A.** Its TGI is 43 µM.

**Q.** And the TGI [8]?
**A.** The TGI was 31.9 µM.

**Q.** With CN(C)C1=NC2=S(SC(Nc3ccccc3)=N2)S1 (configuration not stated) as the compound, how does the TGI [1] read?
**A.** The TGI was over 100 µM.

**Q.** What about the TGI [2] of the same compound?
**A.** Its TGI is over 100 µM.

**Q.** And the TGI [3]?
**A.** The TGI was over 100 µM.

**Q.** What about the TGI [4] of the same compound?
**A.** The TGI was 60.6 µM.

**Q.** And the TGI [5]?
**A.** The TGI was 56.2 µM.

**Q.** What about the TGI [6] of the same compound?
**A.** The TGI was 90.4 µM.

**Q.** And the TGI [7]?
**A.** Its TGI is 97.9 µM.

**Q.** And the TGI [8]?
**A.** Its TGI is 85.5 µM.

**Q.** How did the TGI [1] turn out when COC(=O)C1=C(c2ccc3c(c2)OCO3)OC(c2ccc3c(c2)OCO3)C1 (configuration not stated) was run?
**A.** The TGI was over 100 µM.

**Q.** What about the TGI [2] of the same compound?
**A.** The TGI was over 100 µM.

**Q.** What about the TGI [3] of the same compound?
**A.** Its TGI is over 100 µM.

**Q.** What about the TGI [4] of the same compound?
**A.** The TGI was over 100 µM.

**Q.** And the TGI [5]?
**A.** The TGI was over 100 µM.

**Q.** What about the TGI [6] of the same compound?
**A.** The TGI was over 100 µM.

**Q.** What about the TGI [8] of the same compound?
**A.** Its TGI is over 100 µM.

**Q.** COc1ccccc1C(N)c1ccccc1 (configuration not stated) was tested. Which TGI [1] did it give?
**A.** Its TGI is over 100 µM.

**Q.** What about the TGI [2] of the same compound?
**A.** The TGI was over 100 µM.

**Q.** What about the TGI [3] of the same compound?
**A.** Its TGI is over 100 µM.

**Q.** What about the TGI [4] of the same compound?
**A.** Its TGI is over 100 µM.

**Q.** And the TGI [5]?
**A.** Its TGI is over 100 µM.

**Q.** And the TGI [6]?
**A.** Its TGI is over 100 µM.

**Q.** What about the TGI [7] of the same compound?
**A.** The TGI was over 100 µM.

**Q.** And the TGI [8]?
**A.** Its TGI is over 100 µM.

**Q.** Which results are given for NC(=O)Nc1c([N+](=O)[O-])cc(C(F)(F)F)cc1[N+](=O)[O-]?
**A.** TGI [1]: > 100 µM; TGI [2]: > 100 µM; TGI [3]: > 100 µM; TGI [4]: > 100 µM; TGI [5]: > 100 µM; TGI [7]: > 100 µM; TGI [8]: > 100 µM

**Q.** Which GI50 [1] does the source give for O=C(O)c1cccc2cccc(C(=O)O)c12.[Hg] here?
**A.** Its GI50 is 14.4 µM.

**Q.** And the TGI [1]?
**A.** The TGI was 29.8 µM.

**Q.** And the GI50 [2]?
**A.** Its GI50 is 1.5 µM.

**Q.** And the TGI [2]?
**A.** The TGI was 15.5 µM.

**Q.** And the GI50 [3]?
**A.** The GI50 was 11.5 µM.

**Q.** And the TGI [3]?
**A.** Its TGI is 26.5 µM.

**Q.** And the GI50 [5]?
**A.** The GI50 was 14.9 µM.

**Q.** And the TGI [5]?
**A.** The TGI was 29.3 µM.

**Q.** And the GI50 [6]?
**A.** Its GI50 is 19.6 µM.

**Q.** What about the TGI [6] of the same compound?
**A.** Its TGI is 33.9 µM.

**Q.** And the GI50 [7]?
**A.** The GI50 was 15.9 µM.

**Q.** And the TGI [7]?
**A.** Its TGI is 29.7 µM.

**Q.** And the GI50 [8]?
**A.** The GI50 was 20.3 µM.

**Q.** What about the TGI [8] of the same compound?
**A.** The TGI was 34.6 µM.

**Q.** For COc1ccc(C(=O)CC(=O)C(=O)Nc2ccc(C)c(C)c2)cc1, which TGI [1] is on record?
**A.** The TGI was over 57.1 µM.

**Q.** What about the TGI [2] of the same compound?
**A.** The TGI was over 87 µM.

**Q.** What about the TGI [3] of the same compound?
**A.** Its TGI is over 100 µM.

**Q.** What about the TGI [4] of the same compound?
**A.** The TGI was over 100 µM.

**Q.** What about the TGI [5] of the same compound?
**A.** The TGI was over 100 µM.

**Q.** What about the TGI [6] of the same compound?
**A.** Its TGI is over 100 µM.

**Q.** And the TGI [7]?
**A.** Its TGI is over 100 µM.

**Q.** What about the TGI [8] of the same compound?
**A.** Its TGI is over 100 µM.

**Q.** Which results are given for Cc1ccc(NC2=C(Cl)C(=O)N(Cc3ccccc3)C2=O)cc1Cl?
**A.** GI50 [1]: 5.4 µM; TGI [1]: 21.4 µM; GI50 [9]: 10.6 µM; TGI [9]: 33.9 µM; GI50 [2]: 3.69 µM; TGI [2]: 25.8 µM; GI50 [10]: 5.29 µM; TGI [10]: 25.7 µM; GI50 [3]: 3.28 µM; TGI [3]: 15.1 µM; GI50 [5]: 12.9 µM; TGI [5]: 29.3 µM; GI50 [6]: 19.4 µM; TGI [6]: > 100 µM; GI50 [7]: 11.2 µM; TGI [7]: 34.7 µM; GI50 [8]: 9.13 µM; TGI [8]: 24.3 µM

**Q.** What does the source list for NCCCNCCSSC/C=C\CSSCCNCCCN?
**A.** TGI [1]: > 100 µM; TGI [2]: 62.3 µM and 65.1 µM; TGI [3]: > 100 µM; TGI [4]: > 100 µM; TGI [5]: > 100 µM; TGI [6]: > 100 µM; TGI [7]: > 100 µM; TGI [8]: > 100 µM

**Q.** What does the source list for NC(=O)CCC(NC(=O)Cc1ccccc1)C(=O)O (configuration not stated) (tested in a mixture with another compound)?
**A.** TGI [1]: > 2470 µM; TGI [2]: > 8130 µM; TGI [3]: > 8130 µM; TGI [4]: > 8130 µM; TGI [5]: > 8130 µM; TGI [6]: > 8130 µM; TGI [7]: > 8130 µM; TGI [8]: > 8130 µM

**Q.** What does the source list for O=C1NC(c2c(Cl)cccc2Cl)Nc2ccccc21 (configuration not stated)?
**A.** TGI [1]: > 100 µM; TGI [9]: 74.1 µM; TGI [10]: 33 µM; TGI [3]: > 100 µM; TGI [4]: > 100 µM; TGI [5]: > 100 µM; TGI [6]: > 100 µM; TGI [7]: > 100 µM; TGI [8]: > 100 µM

**Q.** What does the source list for COC(=O)C(Cc1ccccc1)NC(=O)Cn1ccnc1[N+](=O)[O-] (configuration not stated)?
**A.** TGI [1]: > 100 µM; TGI [2]: > 100 µM; TGI [3]: > 100 µM; TGI [4]: > 100 µM; TGI [5]: > 100 µM; TGI [6]: > 100 µM; TGI [7]: > 100 µM; TGI [8]: > 100 µM

**Q.** Which TGI [1] does the source give for COC(=O)CS(=O)c1ccccc1 (configuration not stated) here?
**A.** The TGI was over 100 µM.

**Q.** And the TGI [2]?
**A.** Its TGI is over 100 µM.

**Q.** And the TGI [3]?
**A.** Its TGI is 91.6 µM.

**Q.** And the TGI [4]?
**A.** The TGI was 44.1 µM.

**Q.** And the TGI [5]?
**A.** The TGI was over 100 µM.

**Q.** And the TGI [6]?
**A.** Its TGI is over 100 µM.

**Q.** And the TGI [7]?
**A.** Its TGI is over 100 µM.

**Q.** And the TGI [8]?
**A.** The TGI was over 100 µM.

**Q.** CC1OC(n2c3ccccc3c3c4c(c5c6ccccc6[nH]c5c32)C(=O)N(CCN2CCOCC2)C4=O)CC(O)C1O (configuration not stated) was tested. Which GI50 [1] did it give?
**A.** Its GI50 is 2.34 µM.

**Q.** And the TGI [1]?
**A.** Its TGI is 13.5 µM.

**Q.** What about the GI50 [9] of the same compound?
**A.** Its GI50 is 6.32 µM.

**Q.** What about the TGI [9] of the same compound?
**A.** Its TGI is 16.2 µM.

**Q.** And the GI50 [2]?
**A.** Its GI50 is 1.85 µM.

**Q.** And the TGI [2]?
**A.** The TGI was 50 µM.

**Q.** And the GI50 [10]?
**A.** The GI50 was 2.71 µM.

**Q.** And the TGI [10]?
**A.** Its TGI is 9.59 µM.

**Q.** What about the GI50 [3] of the same compound?
**A.** The GI50 was 1.66 µM.

**Q.** What about the TGI [3] of the same compound?
**A.** The TGI was 9.65 µM.

**Q.** What about the GI50 [5] of the same compound?
**A.** Its GI50 is 5.61 µM.

**Q.** And the TGI [5]?
**A.** The TGI was 13.8 µM.

**Q.** What about the GI50 [6] of the same compound?
**A.** Its GI50 is 2.29 µM.

**Q.** What about the TGI [6] of the same compound?
**A.** The TGI was 9.77 µM.

**Q.** What about the GI50 [7] of the same compound?
**A.** Its GI50 is 2.18 µM.

**Q.** What about the TGI [7] of the same compound?
**A.** The TGI was 17.8 µM.

**Q.** What about the GI50 [8] of the same compound?
**A.** The GI50 was 6.33 µM.

**Q.** What about the TGI [8] of the same compound?
**A.** The TGI was 13.8 µM.

**Q.** What does the source list for CCOC(=O)C(=O)Nc1c(C)cccc1C(C)C?
**A.** TGI [1]: > 100 µM; TGI [2]: > 100 µM; TGI [3]: > 100 µM; TGI [4]: > 100 µM; TGI [5]: > 100 µM; TGI [6]: > 100 µM; TGI [7]: > 100 µM; TGI [8]: > 100 µM

**Q.** Which results are given for CCOC(=O)NC(=O)c1cn(CCCOC(=O)NCCCCCCNC(=O)OCCCn2cc(C(=O)NC(=O)OCC)c(=O)[nH]c2=O)c(=O)[nH]c1=O?
**A.** TGI [1]: 65.1 µM; TGI [2]: 39.8 µM; TGI [4]: 44.5 µM; TGI [5]: 88.9 µM; TGI [6]: > 100 µM; TGI [7]: 77.6 µM; TGI [8]: 68.5 µM

— PubChem BioAssay (NCI)
